# Test results reported in PMC7840908 (Communications Biology, 2021).
# Where “and” joins values, the source holds several entries; their conditions need not be identical. Equal entries are not always repeated. Entries after “also recorded” stand apart in the source; their conditions may differ.
# How the values were obtained:
# MERS-CoV macro domain [1] = molecular target: T1, MERS-CoV macro domain (Middle East respiratory syndrome-related coronavirus, UniProt K9N638); type: biochemical
# MERS-CoV macro domain [2] = molecular target: T1, MERS-CoV macro domain; type: binding
# MERS-CoV macro domain [3] = molecular target: T1, MERS-CoV macro domain; type: binding; remark: listed apart in the source
# MERS-CoV macro domain [4] = molecular target: T1, MERS-CoV macro domain; type: binding; remark: listed apart in the source
# MERS-CoV macro domain [5] = molecular target: T1, MERS-CoV macro domain; type: binding; remark: listed apart in the source
# MERS-CoV = conditions: cited from earlier work
# T1 sequence (K9N638 1110-1276 limits assumed): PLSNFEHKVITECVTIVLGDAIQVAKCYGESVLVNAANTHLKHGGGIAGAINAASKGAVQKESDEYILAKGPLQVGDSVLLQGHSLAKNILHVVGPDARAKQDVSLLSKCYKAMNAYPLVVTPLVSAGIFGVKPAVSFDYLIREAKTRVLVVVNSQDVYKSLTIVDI
smiles,measurement,setting,value
"Nc1ncnc2c1ncn2C1OC(COP(=O)(O)OP(=O)(O)OCC2OC(O)C(O)C2O)C(O)C1O (stereo not shown) [ADPR, ADP-ribose]",Effect on MAR signals in the deMAR reaction,MERS-CoV macro domain [1],the MAR signals reduced fewer
same,"NMR CSP, residue 2",MERS-CoV macro domain [2],0.05411
same,"NMR CSP, residue 3",MERS-CoV macro domain [2],0.1983 and 0.2813
same,"NMR CSP, residue 5",MERS-CoV macro domain [2],0.069
same,"NMR CSP, residue 6",MERS-CoV macro domain [2],0.06294 and 0.07046
same,"NMR CSP, residue 7",MERS-CoV macro domain [2],0.1539 and 0.09995
same,"NMR CSP, residue 8",MERS-CoV macro domain [2],0.1145 and 0.09451
same,"NMR CSP, residue 13",MERS-CoV macro domain [2],0.06576 and 0.04291
same,"NMR CSP, residue 15",MERS-CoV macro domain [2],0.1078 and 0.09719
same,"NMR CSP, residue 16",MERS-CoV macro domain [2],0.1514 and 0.1186
same,"NMR CSP, residue 17",MERS-CoV macro domain [2],0.0814 and 0.0623
same,"NMR CSP, residue 18",MERS-CoV macro domain [2],0.08432 and 0.05219
same,"NMR CSP, residue 19",MERS-CoV macro domain [2],0.3848 and 0.3419
same,"NMR CSP, residue 20",MERS-CoV macro domain [2],0.8973 and 0.7322
same,"NMR CSP, residue 22",MERS-CoV macro domain [2],0.3525 and 0.4007
same,"NMR CSP, residue 23",MERS-CoV macro domain [2],0.383
same,"NMR CSP, residue 25",MERS-CoV macro domain [2],0.05156 and 0.08317
same,"NMR CSP, residue 26",MERS-CoV macro domain [2],0.1992 and 0.1277
same,"NMR CSP, residue 27",MERS-CoV macro domain [2],0.03208
same,"NMR CSP, residue 28",MERS-CoV macro domain [2],0.1376 and 0.09301
same,"NMR CSP, residue 29",MERS-CoV macro domain [2],0.03731 and 0.02244
same,"NMR CSP, residue 31",MERS-CoV macro domain [2],0.0401 and 0.04027
same,"NMR CSP, residue 32",MERS-CoV macro domain [2],0.3295 and 0.3317
same,"NMR CSP, residue 40",MERS-CoV macro domain [2],0.1305
same,"NMR CSP, residue 42",MERS-CoV macro domain [2],0.3421 and 0.2454
same,"NMR CSP, residue 45",MERS-CoV macro domain [2],0.9446
same,"NMR CSP, residue 46",MERS-CoV macro domain [2],1.504 and 1.393
same,"NMR CSP, residue 48",MERS-CoV macro domain [2],1.083
same,"NMR CSP, residue 49",MERS-CoV macro domain [2],0.7736
same,"NMR CSP, residue 50",MERS-CoV macro domain [2],0.4669 and 0.3863
same,"NMR CSP, residue 51",MERS-CoV macro domain [2],0.1048 and 0.1583
same,"NMR CSP, residue 52",MERS-CoV macro domain [2],0.2728 and 0.1547
same,"NMR CSP, residue 53",MERS-CoV macro domain [2],0.1687 and 0.136
same,"NMR CSP, residue 54",MERS-CoV macro domain [2],0.08878 and 0.08252
same,"NMR CSP, residue 55",MERS-CoV macro domain [2],0.1049 and 0.106
same,"NMR CSP, residue 56",MERS-CoV macro domain [2],0.1546 and 0.1346
same,"NMR CSP, residue 57",MERS-CoV macro domain [2],0.138 and 0.07814
same,"NMR CSP, residue 59",MERS-CoV macro domain [2],0.122 and 0.1437
same,"NMR CSP, residue 60",MERS-CoV macro domain [2],0.1518 and 0.1952
same,"NMR CSP, residue 62",MERS-CoV macro domain [2],0.2878 and 0.2628
same,"NMR CSP, residue 63",MERS-CoV macro domain [2],0.1045 and 0.05935
same,"NMR CSP, residue 64",MERS-CoV macro domain [2],0.3272 and 0.2442
same,"NMR CSP, residue 66",MERS-CoV macro domain [2],0.09722 and 0.08557
same,"NMR CSP, residue 67",MERS-CoV macro domain [2],0.1931 and 0.1393
same,"NMR CSP, residue 68",MERS-CoV macro domain [2],0.02796 and 0.05038
same,"NMR CSP, residue 71",MERS-CoV macro domain [2],0.06402
same,"NMR CSP, residue 73",MERS-CoV macro domain [2],0.05219
same,"NMR CSP, residue 74",MERS-CoV macro domain [2],0.2006 and 0.1195
same,"NMR CSP, residue 76",MERS-CoV macro domain [2],0.3259 and 0.302
same,"NMR CSP, residue 77",MERS-CoV macro domain [2],0.2091 and 0.1118
same,"NMR CSP, residue 78",MERS-CoV macro domain [2],0.3066 and 0.2179
same,"NMR CSP, residue 79",MERS-CoV macro domain [2],0.2231 and 0.1318
same,"NMR CSP, residue 81",MERS-CoV macro domain [2],0.02964 and 0.02247
same,"NMR CSP, residue 82",MERS-CoV macro domain [2],0.08035 and 0.07748
same,"NMR CSP, residue 88",MERS-CoV macro domain [2],0.05214 and 0.02732
same,"NMR CSP, residue 90",MERS-CoV macro domain [2],0.03514 and 0.02202
same,"NMR CSP, residue 91",MERS-CoV macro domain [2],0.0404 and 0.05921
same,"NMR CSP, residue 92",MERS-CoV macro domain [2],0.2456 and 0.1395
same,"NMR CSP, residue 93",MERS-CoV macro domain [2],0.4982 and 0.3283
same,"NMR CSP, residue 94",MERS-CoV macro domain [2],1.407 and 1.235
same,"NMR CSP, residue 95",MERS-CoV macro domain [2],0.4425 and 0.3726
same,"NMR CSP, residue 97",MERS-CoV macro domain [2],0.5401 and 0.4521
same,"NMR CSP, residue 100",MERS-CoV macro domain [2],0.1106 and 0.08163
same,"NMR CSP, residue 105",MERS-CoV macro domain [2],0.06587
same,"NMR CSP, residue 106",MERS-CoV macro domain [2],0.1936 and 0.1903
same,"NMR CSP, residue 107",MERS-CoV macro domain [2],0.1268 and 0.1117
same,"NMR CSP, residue 108",MERS-CoV macro domain [2],0.06699 and 0.04787
same,"NMR CSP, residue 110",MERS-CoV macro domain [2],0.1341 and 0.1262
same,"NMR CSP, residue 116",MERS-CoV macro domain [2],0.02109 and 0.03031
same,"NMR CSP, residue 117",MERS-CoV macro domain [2],0.04981 and 0.05032
same,"NMR CSP, residue 120",MERS-CoV macro domain [2],0.07982 and 0.07783
same,"NMR CSP, residue 125",MERS-CoV macro domain [2],0.9414 and 0.7836
same,"NMR CSP, residue 126",MERS-CoV macro domain [2],0.4011 and 0.2956
same,"NMR CSP, residue 127",MERS-CoV macro domain [2],0.636 and 0.5379
same,"NMR CSP, residue 131",MERS-CoV macro domain [2],0.2256 and 0.1765
same,"NMR CSP, residue 132",MERS-CoV macro domain [2],0.8759
same,"NMR CSP, residue 133",MERS-CoV macro domain [2],0.6064 and 0.6446
same,"NMR CSP, residue 135",MERS-CoV macro domain [2],0.1312 and 0.07635
same,"NMR CSP, residue 136",MERS-CoV macro domain [2],0.08199 and 0.1121
same,"NMR CSP, residue 137",MERS-CoV macro domain [2],0.1059 and 0.1517
same,"NMR CSP, residue 138",MERS-CoV macro domain [2],0.1473 and 0.115
same,"NMR CSP, residue 139",MERS-CoV macro domain [2],0.07462 and 0.1086
same,"NMR CSP, residue 140",MERS-CoV macro domain [2],0.04879 and 0.03054
same,"NMR CSP, residue 141",MERS-CoV macro domain [2],0.06216 and 0.08925
same,"NMR CSP, residue 145",MERS-CoV macro domain [2],0.2809 and 0.3196
same,"NMR CSP, residue 148",MERS-CoV macro domain [2],0.04359 and 0.06607
same,"NMR CSP, residue 149",MERS-CoV macro domain [2],0.112 and 0.08955
same,"NMR CSP, residue 150",MERS-CoV macro domain [2],0.04 and 0.03962
same,"NMR CSP, residue 152",MERS-CoV macro domain [2],0.255 and 0.1438
same,"NMR CSP, residue 153",MERS-CoV macro domain [2],0.3264 and 0.2803
same,"NMR CSP, residue 154",MERS-CoV macro domain [2],0.8835 and 0.7254
same,"NMR CSP, residue 155",MERS-CoV macro domain [2],0.3976 and 0.2797
same,"NMR CSP, residue 156",MERS-CoV macro domain [2],0.2021
same,"NMR CSP, residue 157",MERS-CoV macro domain [2],0.1187 and 0.09085
same,"NMR CSP, residue 158",MERS-CoV macro domain [2],0.04463 and 0.03077
same,"NMR CSP, residue 162",MERS-CoV macro domain [2],0.06097 and 0.0557
same,"NMR CSP, residue 163",MERS-CoV macro domain [2],0.2144 and 0.1623
same,"NMR CSP, residue 164",MERS-CoV macro domain [2],0.08089 and 0.05482
same,entropy contribution,MERS-CoV macro domain [3],−9.30 ± 17.61 J/mol K
same,n (stoichiometry of binding),MERS-CoV macro domain [3],1.25 ± 0.08 and 1.20 ± 0.19
same,"Melting temperature (Tm) of the MERS-CoV macro domain in complex, CD",MERS-CoV macro domain [4],48.8 °C
same,"Melting temperature (Tm) of the MERS-CoV macro domain in complex, DSF",MERS-CoV macro domain [5],49.0 °C
"NC(=O)c1ccc[n+]([C@@H]2O[C@H](COP(=O)([O-])OP(=O)(O)OC[C@H]3O[C@@H](n4cnc5c(N)ncnc54)[C@H](O)[C@@H]3O)[C@@H](O)[C@H]2O)c1 [NAD, nicotinamide adenine dinucleotide]",Effect on MAR signals in the deMAR reaction,MERS-CoV macro domain [1],the MAR signals reduced more
same,"NMR CSP, residue 25",MERS-CoV macro domain [2],0.05155 and 0.0863
same,"NMR CSP, residue 27",MERS-CoV macro domain [2],0.02171 and 0.02658
same,"NMR CSP, residue 35",MERS-CoV macro domain [2],0.0131
same,"NMR CSP, residue 36",MERS-CoV macro domain [2],0.01783
same,"NMR CSP, residue 37",MERS-CoV macro domain [2],0.07975
same,"NMR CSP, residue 38",MERS-CoV macro domain [2],0.01444
same,"NMR CSP, residue 45",MERS-CoV macro domain [2],0.2497
same,"NMR CSP, residue 47",MERS-CoV macro domain [2],0.006205
same,"NMR CSP, residue 48",MERS-CoV macro domain [2],0.04145
same,"NMR CSP, residue 49",MERS-CoV macro domain [2],0.01049
same,"NMR CSP, residue 79",MERS-CoV macro domain [2],0.07732 and 0.1287
same,"NMR CSP, residue 104",MERS-CoV macro domain [2],0.01357 and 0.02257
same,"NMR CSP, residue 115",MERS-CoV macro domain [2],0.005468 and 0.008456
same,"NMR CSP, residue 124",MERS-CoV macro domain [2],0.0754 and 0.108
same,"NMR CSP, residue 128",MERS-CoV macro domain [2],0.1673
same,"NMR CSP, residue 129",MERS-CoV macro domain [2],0.02609
same,"NMR CSP, residue 130",MERS-CoV macro domain [2],0.008538
same,"NMR CSP, residue 132",MERS-CoV macro domain [2],0.01478
same,"NMR CSP, residue 140",MERS-CoV macro domain [2],0.01724 and 0.02911
same,"NMR CSP, residue 143",MERS-CoV macro domain [2],0.0201 and 0.02422
same,"NMR CSP, residue 156",MERS-CoV macro domain [2],0.0383
same,NMR chemical shift perturbation behaviour / exchange regime,MERS-CoV macro domain [2],only a few residues presented CSPs; also recorded: slow-exchange
same,entropy contribution,MERS-CoV macro domain [3],−22.59 ± 3.77 J/mol K
same,n (stoichiometry of binding),MERS-CoV macro domain [3],1.04 ± 0.12 and 0.938 ± 0.13
same,"Melting temperature (Tm) of the MERS-CoV macro domain in complex, CD",MERS-CoV macro domain [4],46.6 °C
same,"Melting temperature (Tm) of the MERS-CoV macro domain in complex, DSF",MERS-CoV macro domain [5],46.5 °C
Oc1ccc(/C=C/c2cc(O)cc(O)c2)cc1 [resveratrol],Effect on replication of MERS-CoV,MERS-CoV,inhibit the replication of MERS-CoV
